# pIC50: −log10 of the molar value. Entries after “also recorded” stand apart in the source; their conditions may differ.
# Tests used:
# c-KIT = molecular target: T1, c-KIT (Homo sapiens, UniProt P10721); test: Invitrogen Z'LYTE biochemical kinase assay
# T1 construct: made in house
# Procedure: The fluorescence resonance energy transfer-based Z'-LYTE kinase assay (Invitrogen, USA) was used to evaluate the IC50 value of CHMFL-074 for inhibition of ABL and KIT kinase. […] After 1 hour incubation, the reaction was developed and terminated, and the fluorescence measured with an automated plate reader (SpectraMax I3, USA). A dose-response curve was fitted using Prism 5.0 (GraphPad Software Inc., San Diego, CA).
# ABL1-phosphorylated = molecular target: T2, ABL1-phosphorylated (Homo sapiens, UniProt P00519); test: KinomeScan profiling; type: binding; settings: 1 µM CHMFL-074; read-out: % Control
# T2 construct: purchased DiscoveRx (KinomeScan service)
# PDGFRα = PDGFRα (Homo sapiens, UniProt P16234); test: Promega ADP-Glo biochemical kinase assay; settings: 100 μM ATP, read-out: IC50 against PDGFRα
# Procedure: (§1) The ADP-Glo™ kinase assay (Promega, USA) was used to screen CHMFL-074 for its PDGFRα/PDGFRβ inhibition effects. […] The reaction in each tube was started immediately by adding ATP and kept going for an hour under 37°C. After the tube cooled for 5 minutes at room temperature, 5 μL solvent reactions were carried out in a 384-well plate. Then 5 μL of ADP-Glo™ reagent was added into each well to stop the reaction and consume the remaining […] within 40 minutes. […] Luminescence signal was measured with an automated plate reader (Envision, USA) and the dose-response curve was fitted using Prism 5.0 (GraphPad Software Inc., San Diego, CA).
# PDGFRβ = PDGFRβ (Homo sapiens, UniProt P09619); test: Promega ADP-Glo biochemical kinase assay; settings: 100 μM ATP, read-out: IC50 against PDGFRβ
# Procedure: as §1
# K562 tumor xenografts = test: K562 xenograft tumor model; type: in vivo
# Source text: Five-week old female nu/nu mice were purchased from the Shanghai Experimental Center, Chinese Science Academy (Shanghai, China). All animals were housed in a specific pathogen-free facility and used according to the animal care regulations of Hefei Institutes of Physical Science Chinese Academy of Sciences. Prior to implantation, cells were harvested during exponential growth. Five million K562 cells in PBS were formulated as a 1:1 mixture with Matrigel (BD Biosciences) and injected into the subcutaneous space on the right flank of nu/nu mice. Daily oral administration was initiated when K562 tumors had reached a size of 200 to 300 mm^3. Animals were then randomized into treatment groups of 6 mice each for efficacy studies. CHMFL-074 was delivered daily in a HKI solution (0.5% Methocellulose/0.4% Tween 80 in dd H2O) by orally gavage. Body weight was measured daily and tumor growth was measured every day after CHMFL-074 treatment. Tumor volumes were calculated as follows: tumor volume (mm^3) = [(W^2 × L)/2] in which width (W) is defined as the smaller of the two measurements and length (L) is defined as the larger of the two measurements.
# P210-E255K-BaF3 = test: Anti-proliferation, BaF3 isogenic cell lines; type: cell-based; settings: Mus musculus, BaF3, 72 h
# Source text: (§2) Retroviral constructs for fusion kinases were made based on the pMSCVpuro (Clontech) backbone. For TEL fusion vectors, the first 1 kb of human TEL gene with an artificial myristoylation sequence ([…]) was cloned into pMSCVpuro retroviral vector, followed by a 3xFLAG tag sequence and a stop codon; for BCR fusion vectors, the first 2.8 kb coding region of p210 amplified from K562 cell line was used in fusion constructs. Then the kinase domain coding sequences were inserted in-frame between TEL/BCR and 3xFLAG sequences. All mutagenesis were performed using the QuikChange Site-Directed Mutagenesis Kit (Stratagene) following the manufacturer's instructions. Retrovirus was packaged in HEK293T cells by transfecting kinase-fusion MSCV vectors together with two helper plasmids, virus supernatants were harvested 48 hours after transfection and filtered before infection. Then BaF3 cells were infected with harvested virus supernatants using spinoculation protocol and stable cell lines were obtained by puromycin selection for 48 hours. A second selection in the absence of IL-3 was performed to obtain IL-3 independent cell lines that solely depend on the introduced kinase activities for cell proliferation.
# (§3) A density of 1 × 10^4 to 2.5 × 10^4 cells/mL cells were mixed with various concentrations of compounds then 100 μL suspension was added to each well and incubated for 72 hours. Cell viability was determined using the CellTiter-Glo assay (Promega, USA) or CCK-8 assay (Beboy, China). Both assays were performed according to the manufacturer instructions. For CellTiter-Glo assay, luminescence was determined in a multi-label reader (Envision, PerkinElmer, USA). […] Data were normalized to control group (DMSO). GI50 were calculated using Prism 6.0 (GraphPad Software, San Diego, CA).
# P210-M351T-BaF3 = test: Anti-proliferation, BaF3 isogenic cell lines; type: cell-based; settings: Mus musculus, BaF3, 72 h
# Source text: as §2, §3
# BCR-DDR2-BaF3 = test: Anti-proliferation, BaF3 isogenic cell lines; type: cell-based; settings: Mus musculus, BaF3, 72 h
# Source text: as §2, §3
# [1] = molecular target: T3, ABL1(H396P)-nonphosphorylated (Homo sapiens, UniProt P00519, H396P); test: KinomeScan profiling; type: binding; settings: 1 µM CHMFL-074; read-out: % Control
# T3 construct: purchased DiscoveRx (KinomeScan service)
# T1 sequence (P10721 26-976): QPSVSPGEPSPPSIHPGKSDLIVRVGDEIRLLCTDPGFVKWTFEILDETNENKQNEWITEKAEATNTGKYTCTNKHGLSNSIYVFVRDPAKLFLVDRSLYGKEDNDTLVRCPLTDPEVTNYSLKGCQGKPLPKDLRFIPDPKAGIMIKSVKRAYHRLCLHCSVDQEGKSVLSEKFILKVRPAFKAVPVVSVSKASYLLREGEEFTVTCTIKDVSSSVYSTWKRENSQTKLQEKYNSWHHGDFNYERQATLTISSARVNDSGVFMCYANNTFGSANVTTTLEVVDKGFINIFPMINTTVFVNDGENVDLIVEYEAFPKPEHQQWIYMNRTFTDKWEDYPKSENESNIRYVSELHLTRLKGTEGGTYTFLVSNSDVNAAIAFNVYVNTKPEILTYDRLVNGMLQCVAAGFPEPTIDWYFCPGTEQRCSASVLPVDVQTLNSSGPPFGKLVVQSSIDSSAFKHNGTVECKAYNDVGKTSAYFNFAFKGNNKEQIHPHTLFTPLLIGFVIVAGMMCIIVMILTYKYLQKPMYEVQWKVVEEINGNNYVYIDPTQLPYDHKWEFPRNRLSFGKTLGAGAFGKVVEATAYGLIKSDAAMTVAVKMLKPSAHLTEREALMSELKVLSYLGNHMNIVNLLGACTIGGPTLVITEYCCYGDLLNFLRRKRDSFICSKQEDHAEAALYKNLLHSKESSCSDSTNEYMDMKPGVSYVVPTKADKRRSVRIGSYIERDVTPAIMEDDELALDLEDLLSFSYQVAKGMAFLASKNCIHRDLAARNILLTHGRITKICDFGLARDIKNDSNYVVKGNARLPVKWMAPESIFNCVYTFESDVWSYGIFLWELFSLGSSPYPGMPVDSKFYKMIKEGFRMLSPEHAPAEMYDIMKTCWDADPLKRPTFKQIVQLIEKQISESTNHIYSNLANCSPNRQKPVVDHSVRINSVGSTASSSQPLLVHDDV
# Sequence of PDGFRα (P16234 24-1089): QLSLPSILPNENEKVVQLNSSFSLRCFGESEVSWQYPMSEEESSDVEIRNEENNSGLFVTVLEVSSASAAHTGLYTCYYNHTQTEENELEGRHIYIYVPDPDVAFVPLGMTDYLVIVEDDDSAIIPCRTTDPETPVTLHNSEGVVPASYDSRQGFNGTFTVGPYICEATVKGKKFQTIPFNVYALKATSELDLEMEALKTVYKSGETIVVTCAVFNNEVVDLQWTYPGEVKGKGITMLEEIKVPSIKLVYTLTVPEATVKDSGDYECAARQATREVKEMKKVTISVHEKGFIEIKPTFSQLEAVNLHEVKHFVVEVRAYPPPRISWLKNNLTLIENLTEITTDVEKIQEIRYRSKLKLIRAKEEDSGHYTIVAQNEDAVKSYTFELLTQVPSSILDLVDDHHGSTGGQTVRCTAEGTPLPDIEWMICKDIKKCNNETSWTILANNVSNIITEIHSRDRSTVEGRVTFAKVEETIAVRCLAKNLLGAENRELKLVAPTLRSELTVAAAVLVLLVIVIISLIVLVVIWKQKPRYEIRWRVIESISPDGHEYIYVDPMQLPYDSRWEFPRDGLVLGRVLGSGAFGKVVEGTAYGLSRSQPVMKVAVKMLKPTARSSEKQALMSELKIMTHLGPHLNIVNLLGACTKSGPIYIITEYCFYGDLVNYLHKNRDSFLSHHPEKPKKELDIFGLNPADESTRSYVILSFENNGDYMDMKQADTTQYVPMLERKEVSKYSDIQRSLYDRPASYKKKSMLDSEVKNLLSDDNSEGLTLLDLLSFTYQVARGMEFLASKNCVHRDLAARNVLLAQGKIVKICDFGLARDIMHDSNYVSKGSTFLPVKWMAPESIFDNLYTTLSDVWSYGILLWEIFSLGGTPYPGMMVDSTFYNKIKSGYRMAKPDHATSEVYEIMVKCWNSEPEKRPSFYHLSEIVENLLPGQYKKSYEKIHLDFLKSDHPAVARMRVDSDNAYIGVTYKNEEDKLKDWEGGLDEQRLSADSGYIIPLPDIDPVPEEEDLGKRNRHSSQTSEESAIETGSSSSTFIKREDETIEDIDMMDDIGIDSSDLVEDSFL
# Sequence of PDGFRβ (P09619 33-1106): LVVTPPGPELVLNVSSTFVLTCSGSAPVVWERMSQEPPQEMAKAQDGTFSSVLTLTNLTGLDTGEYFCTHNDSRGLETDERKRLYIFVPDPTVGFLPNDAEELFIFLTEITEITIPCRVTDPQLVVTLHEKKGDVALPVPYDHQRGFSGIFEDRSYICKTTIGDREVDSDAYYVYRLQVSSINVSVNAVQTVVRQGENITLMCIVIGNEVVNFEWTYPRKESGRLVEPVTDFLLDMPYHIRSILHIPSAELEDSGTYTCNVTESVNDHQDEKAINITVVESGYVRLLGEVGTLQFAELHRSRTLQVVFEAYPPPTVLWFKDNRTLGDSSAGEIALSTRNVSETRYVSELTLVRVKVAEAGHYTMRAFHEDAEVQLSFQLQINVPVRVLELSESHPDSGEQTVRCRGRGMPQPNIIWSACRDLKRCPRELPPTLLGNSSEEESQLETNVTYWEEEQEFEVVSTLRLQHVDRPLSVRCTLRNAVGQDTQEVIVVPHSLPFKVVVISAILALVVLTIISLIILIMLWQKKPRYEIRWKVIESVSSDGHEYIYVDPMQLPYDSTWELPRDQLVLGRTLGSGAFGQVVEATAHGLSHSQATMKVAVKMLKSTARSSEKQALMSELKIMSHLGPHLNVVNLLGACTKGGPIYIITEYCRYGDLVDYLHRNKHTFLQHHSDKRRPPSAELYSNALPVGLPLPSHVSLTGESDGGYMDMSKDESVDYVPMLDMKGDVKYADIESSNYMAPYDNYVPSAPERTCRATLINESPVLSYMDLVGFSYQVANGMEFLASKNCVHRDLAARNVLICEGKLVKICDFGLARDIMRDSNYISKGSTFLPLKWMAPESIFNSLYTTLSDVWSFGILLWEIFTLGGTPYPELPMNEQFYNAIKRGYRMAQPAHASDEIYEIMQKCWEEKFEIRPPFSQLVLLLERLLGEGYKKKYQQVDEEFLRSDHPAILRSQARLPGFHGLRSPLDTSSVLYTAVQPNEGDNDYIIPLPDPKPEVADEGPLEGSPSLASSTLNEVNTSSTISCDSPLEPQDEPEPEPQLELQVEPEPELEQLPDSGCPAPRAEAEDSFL
smiles,measurement,setting,value
Cc1ccc(NC(=O)c2ccc(CN3CCN(C)CC3)c(C(F)(F)F)c2)cc1OC1CCN(C(=O)c2cccnc2)CC1 [CHMFL-074],fold less active against c-KIT than ABL1 kinase,c-KIT,about 12 fold
same,pIC50,"c-KIT; ATP 300 μM, read-out: IC50 against c-KIT",6.54
same,remaining binding at 1 µM,ABL1-phosphorylated,0.2%
same,pIC50,PDGFRα,7.15
same,pIC50,PDGFRβ,7.06
same,TGI (tumor growth inhibition),"K562 tumor xenografts; 100 mg/kg/d oral, 12-day treatment",65%
same,toxicity in xenograft mice,K562 tumor xenografts; 100 mg/kg/day oral,without exhibiting apparent toxicity; also recorded: no apparent toxicity was observed
same,GI50,P210-E255K-BaF3,774 nM
same,GI50,P210-M351T-BaF3,349 nM
same,GI50,BCR-DDR2-BaF3,2670 nM
same,remaining binding at 1 µM,[1],0.15%

# From paper PMC5216742, “Discovery and characterization of a novel potent type II native and mutant BCR-ABL inhibitor (CHMFL-074) for Chronic Myeloid Leukemia (CML)” (Oncotarget, 2016)
